# Reference: patent US20250163078A1, “IMIDAZOPYRIDAZINE DERIVATIVE, AND PREPARATION METHOD THEREFOR, PHARMACEUTICAL COMPOSITION THEREOF AND USE THEREOF” (SHANGHAI SIMR BIOTECHNOLOGY CO., LTD., priority 2022, published 2025)
# Read-outs that look alike come from different tables or passages of the source.
# Assays:
# α1-GABAA receptor = target: T1, α1-GABAA receptor (Homo sapiens, UniProt P14867+P18507); assay: Whole-cell patch-clamp electrophysiological test of positive allosteric modulation, α1-GABAAR-HEK293 cells; type: cell-based; settings: read-out: Positive allosteric modulation activity on α1-GABAAR
# T1 construct: expressed in transfected cells
# Excerpt: (§1) An α subunit, a β subunit, and a γ subunit are essential for the formation of a complete functional GABAA receptor. […] The α1-GABAAR-HEK293 cell model simultaneously expressed the α1 subunit (protein sequence available in GenBank with an accession No.: NM_000806.5), the β3 subunit (protein sequence available in GenBank with an accession No.: NM_000814.5), and the γ2 subunit (protein sequence available in GenBank with an accession No.: NM_000816.3). The α2-GABAAR-HEK293 cell model simultaneously expressed the α2 subunit (protein sequence available in GenBank with an accession No.: NM_000807.4), the β3 subunit (protein sequence available in GenBank with an accession No.: NM_000814.5), and the γ2 subunit (protein sequence available in GenBank with an accession No.: NM_000816.3).
# (§2) The above cell lines were subcultured. The α2-GABAAR-HEK293 cells were expanded for assay of the benzodiazepine (BZD) site affinity of compounds for GABAA receptors.
# (§3) The positive regulation activity of the test drugs on the α1-GABAA receptor and the α2-GABAA receptor was detected by the electrophysiological method. The specific method was as follows:
# (§4) Compound concentration setting: the final concentration of the compounds used for screening was 100 nM. […] The components of the extracellular solution (ECS) for electrophysiology were as follows: 150 mM NaCl, 5 mM KCl, 2.5 mM CaCl2, 1 mM MgCl2, 10 mM HEPES, and 10 mM glucose (pH 7.4); the formulation of the intracellular solution (ICS) of electrodes for electrophysiology was as follows: 140 mM CsCl, 11 mM EGTA, 10 mM HEPES, 2 mM CaCl2, 1 mM MgCl2, 4 mM MgATP, and 2 mM TEA (pH 7.3). GABA (γ-aminobutyric acid) powder was prepared into a mother liquor with pure water, which was then diluted in ECS; the compounds were first prepared into 4 mM mother liquors with dimethyl sulfoxide and then gradually diluted to corresponding concentrations in GABA-ECS. The solutions were all prepared freshly prior to the electrophysiological test.
# (§5) Electrophysiological signal acquisition was performed using an EPC 10 amplifier and PatchMaster software (HEKA) or an Axon700B amplifier and Clampex software (AXON).
# (§6) The recording electrode was made by pulling borosilicate glass, with an electrode resistance of 4-6 MΩ. Extracellular administration was performed using the ALA-VC-8PG™ system. A single, independently growing cell was selected. After the glass electrode formed a good seal with the cell, the membrane was ruptured to form the whole-cell configuration. The cell membrane potential was clamped at −60 mV and recorded in Gap-free mode. During the test, the extracellular solution was first applied extracellularly for about 20 s. After the baseline (Iprebaseline) stabilized, the extracellular solution was switched to GABA-ECS. At this time, the current caused by GABA (Igaba) could be detected. After about 10-20 s, when the current stabilized, the extracellular solution was switched to a mixed solution of the compound and GABA-ECS. At this point, the current caused by both the compound and GABA (Itreatment) could be detected. Finally, the solution was switched to the extracellular solution, and the test was terminated after recording for 20-40 s.
# (§7) The current values at each stage were calculated based on the average value of the current after stabilization under the corresponding conditions. We defined the control current as Igaba−Iprebaseline, and the current after compound treatment as Itreatment−Iprebaseline. The allosteric modulation activity of the compounds was expressed as a percentage, calculated by the following formula: functional activity=[(Itreatment−Igaba)/(Igaba−Iprebaseline)]×100%.
# [1] = test system: Chinese hamster ovary cells (CHO-WBL cells); assay: In vitro micronucleus assay; type: cell-based; settings: 3 h with S9, 3 h without S9, 24 h without S9, overall judgment positive/negative
# Excerpt: The cell stock solution was stored in liquid nitrogen. The karyotype of each batch of cell stock solution was identified, and tests confirmed that it was free from mycoplasma contamination. The number of passages after cell cloning will not exceed 15.
# Immediately before use, the S9 homogenate was thawed, and the components of the S9 metabolic activation system were mixed in the proportions shown in Table 2 below.
# Dose exploration experiment: In the dose exploration experiment, 8 administration concentrations were established in each administration treatment series. For each concentration of the test substance, 1 well of cells was set up.
# α2-GABAA receptor [2] = target: T2, α2-GABAA receptor (Homo sapiens, UniProt P18507+P47869); assay: Whole-cell patch-clamp electrophysiological test of positive allosteric modulation, α2-GABAAR-HEK293 cells; type: cell-based; settings: read-out: Positive allosteric modulation activity on α2-GABAAR
# T2 construct: expressed in transfected cells
# Excerpt: as §1, §2, §3, §4, §5, §6, §7
# α2-GABAA receptor [3] = target: T2, α2-GABAA receptor; assay: Radioligand (3H-flunitrazepam) competitive binding assay at the BZD site
# Excerpt: as §1, §2
# The affinity of the compounds for the α2-GABAA receptor was determined by competing with ^3H-flunitrazepam (isotope ^3H-labelled flunitrazepam) for binding to the BZD site on the membrane proteins of HEK293 cells stably expressing the human α2-GABAA receptor.
# Membrane preparation: The cells were suspended in 50 mM Tris-HCl buffer (pH=7.4), homogenized 10 times (20 s for each time) with a homogenizer on ice, and then centrifuged at 4° C. at 1000 g for 10 min. The supernatant was taken. The above steps were repeated. The supernatant was centrifuged (33800 g; Thermo, rotor: A27-8×50) at 4° C. for 60 min. The pellet was resuspended in Tris buffer (50 mM Tris-HCl, 10 mM MgCl2, 0.5 mM EDTA, and 10% glycerol). The protein content was determined (BCA (bicinchoninic acid) protein quantification assay based on the copper ion reduction method, with a BCA kit purchased from Pierce (Annoron (Beijing) Biotechnology Co., Ltd.)), and 1 mL aliquots were prepared and stored at −80° C.
# Radioligand competitive binding assay: This assay was performed in a 200 μL system (96-well plate) containing 100 μL of cell membranes. The concentration of ^3H-flunitrazepam was 1 nM, and the concentrations of the test compounds were in the range of […]. Flumazenil was used as a control. To each low control (LC) well was added 1 μL of 2 mM flumazenil (the final concentration of 10 μM), and to each high control (HC) well was added 1 μL of dimethyl sulfoxide. The final concentration of the target membrane protein was […]. All sample stock solutions of test compounds were 10 mM solutions in dimethyl sulfoxide. All the samples were diluted to a concentration of 0.2 mM with dimethyl sulfoxide, and then subjected to a 4-fold serial dilution to give a total of 8 working concentration gradients. The 96-well plate was sealed with a plate sealing membrane and then incubated on a shaker at room temperature for 1 h. Meanwhile, a GF/C filter plate was soaked in a plate soaking buffer (0.3% PEI (polyethyleneimine, purchased from: Sigma-Aldrich, model: P314), stored at 4° C.) for at least 0.5 h. After the binding incubation was completed, the cells were harvested onto the GF/C filter plate using a cell harvester and washed 4 times with a washing buffer (50 mM Tris-HCl, pH 7.4, stored at 4° C.). After drying in an oven at 50° C. for 1 h, the dried GF/C filter plate was bottom-sealed. The residual radioactivity on the filter membrane was detected by liquid scintillation counting. Scintillation fluid was added at 50 µL/well, and then the plate was sealed. Readings were taken using Microbeta^2 (microplate counter, purchased from: PerkinElmer, model: CNLL0153). The inhibitory activity of the test samples on the binding of ^3H-flunitrazepam to the GABAA receptor membrane protein was calculated.
# [4] = compound 100 nM, GABA about EC2-4, normalised to positive compound CVL-865 (=100%), negative value = reverse allosteric modulation
# [5] = membranes of HEK293 cells stably expressing human α2-GABAA receptor (α2β3γ2), 1 nM 3H-flunitrazepam, Ki calculated from IC50, read-out: α2 Ki
# [6] = compound 100 nM, GABA 0.10-0.11 M [sic] (about EC70.8), normalised to positive compound CVL-865 (=100%)
SMILES,activation at 0.1 µM (α1-GABAA receptor) [%],Results of in vitro micronucleus assay [1],activation at 0.1 µM (α2-GABAA receptor [2]) [%],Ki (α2-GABAA receptor [3]) [nM],activation at 0.1 µM (α1-GABAA receptor; [4]) [%],Ki (α2-GABAA receptor [3]; [5]) [nM],activation at 0.1 µM (α2-GABAA receptor [2]; [6]) [%]
"CCn1cnc2c(-c3ccc(F)c(-c4ccc(S(=O)(=O)CC)cc4OC)c3)cnnc21 [CVL-865, reference compound]",100,Positive,100,–,–,–,–
"CCn1cnc2c(-c3ccc(F)c(-c4cn5cc(C6CC6)nc5cc4OC)c3)cnnc21 [Example 37, 4-(3-(2-Cyclopropyl-7-methoxyimidazo[1,2-a]pyridin-6-yl)-4-fluorophenyl)-7-ethyl-7H-imidazo[4,5-c]pyridazine]",74,Negative,79,6.39,–,–,–
"CCn1cnc2c(-c3ccc(F)c(-c4c(OC)ccc5nccn45)c3)cnnc21 [Example 49, 7-Ethyl-4-(4-fluoro-3-(6-methoxyimidazo[1,2-a]pyridin-5-yl)phenyl)-7H-imidazo[4,5-c]pyridazine]",–,–,–,–,44,16.5,82
"CCn1cnc2c(-c3ccc(F)c(-c4cn5cc(C)nc5cc4OC)c3)cnnc21 [Example 50, 7-Ethyl-4-(4-fluoro-3-(7-methoxy-2-methylimidazo[1,2-a]pyridin-6-yl)phenyl)-7H-imidazo[4,5-c]pyridazine]",29,–,103,9.89,–,–,–
"CCn1cnc2c(-c3ccc(F)c(-c4cn5ccnc5cc4OC)c3)cnnc21 [Example 52, 7-Ethyl-4-(4-fluoro-3-(7-methoxyimidazo[1,2-a]pyridin-6-yl)phenyl)-7H-imidazo[4,5-c]pyridazine]",–,–,–,–,19,8.07,99
"CCn1cnc2c(-c3ccc(F)c(-c4ccn5c(C)cnc5c4COC)c3)cnnc21 [Example 54, 7-Ethyl-4-(4-fluoro-3-(8-(methoxymethyl)-3-methylimidazo[1,2-a]pyridin-7-yl)phenyl)-7H-imidazo[4,5-c]pyridazine]",–,–,–,–,47,2.96,100
"CCn1cnc2c(-c3ccc(F)c(-c4ccn5c(C)nnc5c4COC)c3)cnnc21 [Example 58, 7-Ethyl-4-(4-fluoro-3-(8-(methoxymethyl)-3-methyl-[1,2,4]triazolo[4,3-a]pyridin-7-yl)phenyl)-7H-imidazo[4,5-c]pyridazine]",–,–,–,–,40,11.4,123
